Patent US10858362B2, “Imidazopyrazinones as PDE1 inhibitors” (H. Lundbeck A/S, priority 2015, dated 2020)

Legend:
Assay type in all cases: biochemical
PDE1C = PDE1C (Homo sapiens (Human), UniProt Q14123); experiment: PDE1 inhibition assay, PDE1C; details: for IC50: 15 nM tritium labelled cAMP; for inhibition at 1 µM: read-out: PDE1C, % inhibition (at 1 μM)
Protocol: (§1) Reactions were initiated by addition of the cyclic nucleotide substrate, and reactions were allowed to proceed for 1 h at room temperature before being terminated through mixing with 20 μL (0.2 mg) yttrium silicate SPA beads (PerkinElmer). The beads were allowed to settle for 1 h in the dark before the plates were counted in a Wallac 1450 Microbeta counter.

PDE1A = PDE1A (Homo sapiens (Human), UniProt P54750); experiment: PDE1 inhibition assay, PDE1A; details: for IC50: 15 nM tritium labelled cAMP; for inhibition at 10 µM: read-out: PDE1A, % inhibition (at 10 μM)
Protocol: Reactions were initiated by addition of the cyclic nucleotide substrate, and reactions were allowed to proceed for 1 h at room temperature before being terminated through mixing with 20 μL (0.2 mg) yttrium silicate SPA beads (PerkinElmer).

PDE9 = PDE9 (Homo sapiens (Human), UniProt O76083); experiment: PDE9 inhibition assay
Procedure, shortened: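 Human PDE9 in 50 mM HEPES pH 7.6, 10 mM MgCl2, 0.02% Tween20, enzyme set to convert 20-25% of 10 nM ^3H-cAMP substrate; inhibitors at varying amounts. 1 hr incubation, stopped with yttrium silicate SPA beads, settled 1 hr in dark, then scintillation counted.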

PDE1B = PDE1B (Homo sapiens (Human), UniProt Q01064); experiment: PDE1 inhibition assay, PDE1B; details: for IC50: 15 nM tritium labelled cAMP
Protocol: as §1

Chain of PDE1C (Q14123 whole entry): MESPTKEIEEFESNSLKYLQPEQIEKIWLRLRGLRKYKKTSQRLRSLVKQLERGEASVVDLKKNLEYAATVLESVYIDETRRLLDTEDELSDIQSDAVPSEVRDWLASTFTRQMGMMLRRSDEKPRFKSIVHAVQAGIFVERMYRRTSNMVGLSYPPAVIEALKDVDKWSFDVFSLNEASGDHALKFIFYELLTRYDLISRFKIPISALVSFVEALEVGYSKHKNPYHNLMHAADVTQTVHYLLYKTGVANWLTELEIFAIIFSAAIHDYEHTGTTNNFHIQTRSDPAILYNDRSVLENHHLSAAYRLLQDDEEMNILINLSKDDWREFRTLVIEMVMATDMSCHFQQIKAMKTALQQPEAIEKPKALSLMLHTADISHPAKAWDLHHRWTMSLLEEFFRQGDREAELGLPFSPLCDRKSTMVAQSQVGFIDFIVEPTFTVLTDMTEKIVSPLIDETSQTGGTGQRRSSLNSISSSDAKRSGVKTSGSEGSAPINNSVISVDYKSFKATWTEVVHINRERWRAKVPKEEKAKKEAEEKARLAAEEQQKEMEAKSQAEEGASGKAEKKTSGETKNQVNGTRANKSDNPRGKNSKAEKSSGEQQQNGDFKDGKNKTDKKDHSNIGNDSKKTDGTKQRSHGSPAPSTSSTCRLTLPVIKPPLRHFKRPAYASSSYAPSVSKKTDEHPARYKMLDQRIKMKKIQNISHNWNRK
Chain of PDE1B (Q01064 whole entry): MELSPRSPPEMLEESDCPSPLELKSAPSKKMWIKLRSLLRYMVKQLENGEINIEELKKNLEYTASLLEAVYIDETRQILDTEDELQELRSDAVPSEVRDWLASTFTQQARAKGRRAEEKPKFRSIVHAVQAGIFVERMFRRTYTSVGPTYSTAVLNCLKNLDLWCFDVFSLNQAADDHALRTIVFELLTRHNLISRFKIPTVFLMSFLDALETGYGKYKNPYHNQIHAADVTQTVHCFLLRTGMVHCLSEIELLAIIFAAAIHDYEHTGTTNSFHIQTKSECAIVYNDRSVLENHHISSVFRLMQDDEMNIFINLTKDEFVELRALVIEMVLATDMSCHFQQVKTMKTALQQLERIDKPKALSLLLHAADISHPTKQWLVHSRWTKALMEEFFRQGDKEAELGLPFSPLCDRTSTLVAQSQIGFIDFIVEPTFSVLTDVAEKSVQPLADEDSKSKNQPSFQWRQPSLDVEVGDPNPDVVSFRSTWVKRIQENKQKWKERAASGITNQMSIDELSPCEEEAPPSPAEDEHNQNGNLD
Chain of PDE1A (P54750 whole entry): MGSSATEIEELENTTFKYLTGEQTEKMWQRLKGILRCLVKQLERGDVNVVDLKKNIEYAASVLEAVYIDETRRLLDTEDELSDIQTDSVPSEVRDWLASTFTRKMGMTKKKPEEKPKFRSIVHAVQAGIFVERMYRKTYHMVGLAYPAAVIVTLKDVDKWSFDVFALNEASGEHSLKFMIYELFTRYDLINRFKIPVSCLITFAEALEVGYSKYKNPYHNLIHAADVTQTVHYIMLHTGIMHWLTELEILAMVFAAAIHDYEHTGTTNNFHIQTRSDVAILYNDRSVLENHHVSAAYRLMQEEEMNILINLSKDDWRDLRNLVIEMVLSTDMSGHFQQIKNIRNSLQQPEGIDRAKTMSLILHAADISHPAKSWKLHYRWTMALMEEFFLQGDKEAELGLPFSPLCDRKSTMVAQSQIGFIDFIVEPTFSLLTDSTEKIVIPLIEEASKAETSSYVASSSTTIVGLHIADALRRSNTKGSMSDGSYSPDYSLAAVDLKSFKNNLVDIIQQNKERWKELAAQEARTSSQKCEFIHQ
Chain of PDE9 (O76083 whole entry): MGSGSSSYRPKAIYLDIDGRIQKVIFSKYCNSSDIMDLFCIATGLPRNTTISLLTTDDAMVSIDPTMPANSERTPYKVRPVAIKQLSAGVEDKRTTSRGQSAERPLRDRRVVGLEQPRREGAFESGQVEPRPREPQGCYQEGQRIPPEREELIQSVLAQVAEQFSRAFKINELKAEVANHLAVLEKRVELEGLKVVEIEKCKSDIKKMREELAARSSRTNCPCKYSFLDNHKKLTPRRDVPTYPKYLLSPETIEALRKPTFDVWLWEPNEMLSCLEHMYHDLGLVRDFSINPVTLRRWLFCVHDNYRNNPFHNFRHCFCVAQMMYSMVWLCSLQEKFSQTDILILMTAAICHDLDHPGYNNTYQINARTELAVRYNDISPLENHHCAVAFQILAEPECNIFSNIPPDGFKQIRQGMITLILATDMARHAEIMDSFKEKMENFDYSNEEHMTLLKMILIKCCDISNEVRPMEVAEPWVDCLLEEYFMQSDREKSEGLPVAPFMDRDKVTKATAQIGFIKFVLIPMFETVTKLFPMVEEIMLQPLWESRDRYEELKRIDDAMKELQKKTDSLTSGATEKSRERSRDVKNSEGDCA

Structure (SMILES) | IC50 (PDE1C) | IC50 (PDE1A) | inhibition at 10 µM (PDE9) | IC50 (PDE1B) | other results
Cc1cn2c(C3(F)CCOCC3)ncc2c(=O)n1Cc1cccc(F)c1 [Example 29, 7-(3-fluorobenzyl)-3-(4-fluorotetrahydro-2H-pyran-4-yl)-6-methylimidazo[1,5-a]pyrazin-8(7H)-one] | 50 nM | 493 nM | 16% | 249 nM | –
Cc1cn2c([C@H]3C[C@@H]3C)ncc2c(=O)n1Cc1cccc(F)c1 (single isomer, unassigned; isomer 3) [35, isomer 3] | 8 nM | 82 nM | – | 18 nM | % inhibition of PDE9 at 10 microM (PDE9): 0%
Cc1cn2c(C3CCOCC3)ncc2c(=O)n1C [Example 58, 6,7-dimethyl-3-(tetrahydro-2H-pyran-4-yl)imidazo[1,5-a]pyrazin-8(7H)-one] | – | – | 36% | 1770 nM | inhibition at 10 µM (PDE1C; read-out: PDE1C, % inhibition (at 10 μM)): 44%; inhibition at 10 µM (PDE1A): 58%
Cc1cn2c([C@@H]3C[C@H]3C)ncc2c(=O)n1Cc1cccc(F)c1 (single isomer, unassigned; isomer 2) [35, isomer 2] | 41 nM | 364 nM | – | 166 nM | % inhibition of PDE9 at 10 microM (PDE9): 15%
Cc1cc(Cn2c(C)cn3c(C4CCOCC4)ncc3c2=O)no1 [Example 82, 6-methyl-7-((5-methylisoxazol-3-yl)methyl)-3-(tetrahydro-2H-pyran-4-yl)imidazo[1,5-a]pyrazin-8(7H)-one] | 1030 nM | – | 7% | 1500 nM | inhibition at 10 µM (PDE1A): 67%
Cc1cn2c(C3CCOCC3)ncc2c(=O)n1Cc1ccc(C#N)cc1 [Example 46, 4-((6-methyl-8-oxo-3-(tetrahydro-2H-pyran-4-yl)imidazo[1,5-a]pyrazin-7(8H)-yl)methyl)benzonitrile] | – | 809 nM | 14% | – | inhibition at 1 µM (PDE1C): 9%; inhibition at 1 µM (PDE1B; read-out: PDE1B, % inhibition (at 1 μM)): 58%
Cc1cn2c([C@H]3CCCCO3)ncc2c(=O)n1Cc1cccc(F)c1 (single isomer, unassigned; isomer 2) [30, isomer 2] | 215 nM | – | – | – | PDE1A, % inhibition (at 1 μM) (PDE1A; at 1 μM): 27%; % inhibition of PDE9 at 10 microM (PDE9): 28%; PDE1B, % inhibition (at 1 μM) (PDE1B; at 1 μM): 40%
Cc1cn2c(C3CC3(F)F)ncc2c(=O)n1Cc1cccc(F)c1 (stereo not shown) [Example 34, 3-(2,2-difluorocyclopropyl)-7-(3-fluorobenzyl)-6-methylimidazo[1,5-a]pyrazin-8(7H)-one] | 93 nM | 331 nM | 0% | 359 nM | –
CC(=O)Nc1ccc(Cn2c(C)cn3c(C4CCOCC4)ncc3c2=O)cc1 [Example 47, N-(4-((6-methyl-8-oxo-3-(tetrahydro-2H-pyran-4-yl)imidazo[1,5-a]pyrazin-7(8H)-yl)methyl)phenyl)acetamide] | – | – | 10% | 388 nM | inhibition at 1 µM (PDE1C): 10%; inhibition at 1 µM (PDE1A; read-out: PDE1A, % inhibition (at 1 μM)): 0%
Cc1nc(Cn2c(C)cn3c(C4CCOCC4)ncc3c2=O)cs1 [Example 78, 6-methyl-7-((2-methylthiazol-4-yl)methyl)-3-(tetrahydro-2H-pyran-4-yl)imidazo[1,5-a]pyrazin-8(7H)-one] | 251 nM | 1690 nM | 6% | 641 nM | –
Cc1cn2c(C3CCOCC3)ncc2c(=O)n1Cc1ccc(OC(F)F)cc1 [Example 40, 7-(4-(difluoromethoxy)benzyl)-6-methyl-3-(tetrahydro-2H-pyran-4-yl)imidazo[1,5-a]pyrazin-8(7H)-one] | 52 nM | 73 nM | -25% | 27 nM | –
CCc1cn2c(C3CCOCC3)ncc2c(=O)n1Cc1ccccc1 [Example 43, 7-benzyl-6-ethyl-3-(tetrahydro-2H-pyran-4-yl)imidazo[1,5-a]pyrazin-8(7H)-one] | 9 nM | 105 nM | 6% | 32 nM | –
Cc1cn2c(C3CCOCC3)ncc2c(=O)n1Cc1cccc(Cl)c1 [Example 18, 7-(3-Chlorobenzyl)-6-methyl-3-(tetrahydro-2H-pyran-4-yl)imidazo[1,5-a]pyrazin-8(7H)-one] | 8 nM | 57 nM | 31% | 49 nM | –
